Experimental data reported in patent US20250297135A1, “CERIA AND HYDROXAMIC ACID CMP COMPOSITION” (ENTEGRIS, INC., priority 2024, published 2025).
Read-outs that look alike come from different tables or passages of the source.

Assays:
[1] = pH 5.5
Description: (§1) To measure the aqueous solubility, a supersaturated solution of each hydroxamic acid compound was prepared in deionized water. The pH was adjusted to 5.5 using nitric acid and the supersaturated solution was stirred overnight. Excess solids were removed via filtration and the hydroxamic acid compound in solution was quantified using ^1H NMR with a t-BuOH standard.

[2] = Aqueous solubility from supersaturated solution, 1H NMR quantification; conditions: deionized water, pH adjusted to 5.5 using nitric acid, stirred overnight, filtered
Description: as §1

Row | SMILES | Aqueous Solubility [1] | Aqueous Solubility [2]
1 | O=C(NO)c1ccc(F)cc1 [4FBHA, 4-Fluorobenzohydroxamic acid] | 1.0% | 
2 | Cc1ccccc1C(=O)NO [4MeBHA, methylbenzo hydroxamic acid] |  | 0.5%
3 | COc1ccc(CCCCC(=O)NO)cc1 [4pAnisBuHA, 4-(p-anisyl) butyrohydroxamic acid] | 0.5% | 
